The target in experiment [1] is T1, PAF receptor (human platelet membrane) (Homo sapiens, UniProt P25105).
T1 construct: The platelets were broken by freezing in a dry ice-ethanol bath; tissue Lifesource, Inc. (Glenview, Ill.); host or cells: human packed platelets (membrane preparation)
In words: Assay A: Human Platelet Receptor Binding (inhibition of specific [^3 H]PAF binding to human platelet membrane preparation). Conditions: human platelet membranes, 0.75 nM [^3 H]PAF, 30 minutes at 24° C., pH 7.4. The method, then: Compounds of the invention were evaluated for their ability to inhibit specific binding of [^3 H]PAF to human platelet membrane preparation. Human packed platelets were obtained from Lifesource, Inc. (Glenview, Ill.) and washed 3 times with 10 mM Trizma pH 7.0, 2 mM EDTA (dipotassium salt), 150 mM KCL and then once with 10 mM Trizma 7.4, 20 mM CaCL2. The platelets were broken by freezing in a dry ice-ethanol bath, followed by thawing in 24° C. water baths. The preparation was centrifugation (40,000 x g, 20 minutes, 4° C.) and the pellet resuspended in 10 mM Trizma 7.4, 20 mM CaCL2, 5 mg/ml human albumin. Protein concentration in the platelet membrane preparation was determined by the Lowry method [ref]. Aliquots of the membrane preparation were stored at -70° C. Each preparation was characterized for PAF receptor number and dissociation constant (Kd). In binding assays 5 μl of test compound, solubilzed in DMSO, was added to polypropylene tubes along with 0.75 nM [^3 H]PAF and 200 mcl [0.075 nM] of membranes and 95 μl 10 mM Trizma 7.4, 20 mM CaCL2, 5 mg/ml human albumin. Tubes were incubated for 30 minutes at 24° C. The incubation was terminated by adding 4 ml of ice-cold 10 mM Trizma DH 7.4, 20 mM CaCL2 and 20 mg/ml BSA prior to vacuum filtration using Whatman GF/C filters. Filters were prepared and counted for a scintillation counter. All DPM values were corrected for background and isotope decay. Triplicate determinations for single doses were averaged. The amount of non-specific binding was subtracted from all dose averages, giving an amount of specific binding in all cases. The IC50 values for compounds of the invention determined by the Allfit program using percent displacement data. Allfit is a `basic` computer program for simultaneous curve fitting of a family of signoidal dose-response curves using the four parameter logistic equation.

In experiment [2] the test system is PAF-induced aggregation of human platelets. In words: Assay B: Human Platelet Aggregation Inhibition (PAF-induced aggregation in human platelet-rich plasma). In kind it is cell-based. To be noted: 37°. The method, then:
Compounds of the invention were evaluated for their ability to inhibit PAF-induced aggregation of human platelets in a human-platelet-rich plasma. Venous blood was collected from donors who fasted for 8 hours and were instructed not to use antiinflammatory drugs for 2 weeks prior to blood draw. Blood was collected into syringes containing 0.1 ml of 3.8% [w/v] citrate and centrifuged in polypropylene tubes at 150xg for 20 minutes at room temperature. The platelet rich plasma [PRP] was collected and let sit for 20 minutes at room temperature. Platelet activating factor [PAF] was diluted in 0.9% NaCl with 0.25% bovine serum albumin. Silicon treated cuvettes with stir bars were placed in the 37° heating block of the platelet aggregometer [Bio/Data Corporation, Platelet Aggregation Profiler, Model PAP-4]. PRP and test compound were added to cuvettes and aggregation monitored for 10-15 seconds at 37° with stirring. PAF was added and aggregation monitored for an additional 3 minutes. Peak aggregation was considered the peak of the first aggregation wave usually 45-60 seconds after PAF addition. Inhibition of aggregation was determined by the following: 1-[(% aggregation in the presence of compound).div.(% maximal aggregation)]. A log/logit transformation was used to determine half maximal inhibitory concentration of a test compound [IC50 ].

The target in experiment [3] is T2, [^3 H]PAF receptors on human neutrophil membrane (Homo sapiens, UniProt P25105).
T2 construct: Human neutrophils were isolated from venous blood by dextran sedimentation; from tissue; host or cells: human neutrophils from venous blood (membrane preparation)
In words: Assay C: Human Neutrophil Receptor Binding (inhibition of specific [^3 H]PAF binding to human neutrophil membrane). Conditions: human neutrophil membranes, 0.9 nM [^3 H]PAF, 30 minutes at 24°, pH 7.4. The procedure:
Compounds of the invention were evaluated for their ability to inhibit PAF-induced specific binding of [^3 H]PAF to receptors on human neutrophil membrane. Human neutrophils were isolated from venous blood by dextran sedimentation followed by density gradient centrifugation using Ficoll-Hypaque [J. Biol. Chem., 254:7865-7869, 1979]. Residual red blood cells were removed by hypotonic lysis. Neutrophils were suspended in 50 mM Tris-HCl buffer, pH 7.7, and cells disrupted by sonication for 15 seconds on ice. Unbroken cells and nuclei were removed by slow speed centrifugation [1000xg, 10 min. 4°]. The resultant supernatant was centrifuged at 100,000xg for 60 minutes at 4°. The pellet was suspended in 10 mM Tris-HCl, pH 7.4, with 10 mM MgCl2. Protein content was determined by the method of Lowry [J. Biol. Chem., 193:265-275, 1951]. Membranes were characterized for the concentration of binding sites [Bmax] and affinity for the ligand [Kd] using [^3 H]PAF by Scatchard analysis. Binding assays were conducted by incubating 50 mcg of membranes with 0.9 nM [^3 H]PAF and test compounds in 10 mM Tris-HCl buffer, pH 7.4, containing 0.1% bovine serum albumin. Nonspecific binding was determined by the addition of 1 μM PAF. Binding assay were done for 30 minutes at 24°. The assay was terminated by filtration-through a Whatman GF/C glass filters and radioactivity determined by liquid scintillation counting.

Each structure is given as a SMILES string. pIC50: −log10 of the molar value.

T1 sequence (P25105 whole entry): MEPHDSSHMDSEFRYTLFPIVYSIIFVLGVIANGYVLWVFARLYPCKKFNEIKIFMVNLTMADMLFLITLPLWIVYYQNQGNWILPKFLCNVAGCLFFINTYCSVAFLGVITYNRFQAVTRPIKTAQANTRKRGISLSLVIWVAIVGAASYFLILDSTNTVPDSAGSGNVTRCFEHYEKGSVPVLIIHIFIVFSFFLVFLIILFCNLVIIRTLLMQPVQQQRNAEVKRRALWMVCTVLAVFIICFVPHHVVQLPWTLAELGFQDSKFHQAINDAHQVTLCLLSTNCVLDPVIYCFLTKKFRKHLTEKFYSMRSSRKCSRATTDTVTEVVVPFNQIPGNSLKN
T2 sequence (P25105 whole entry): as above

In the case of `COc1cc(Cn2cnc3ncccc32)ccc1C(=O)N(C1CCCC1)C1CC(C)CC(C)C1` (stereo not drawn) [Example 8, N-cyclopentyl-N-(3,5-dimethylcyclohexyl)-4-(1H-imidazo[4,5-b]pyridin-1-ylmethyl)-2-methoxybenzamide], the values for the pIC50 in experiment [1], in experiment [2] and in experiment [3] were 7.46, 8.15 and 7.64, respectively.

What is called pIC50 is the IC50 on a negative log10 scale, so that one unit is a factor of ten. Low readings indicate a high IC50, high ones a low IC50.

These data come from patent US5359073A, “Substituted-phenyl (N,N'-cycloalkyl/alkyl carboxamide)-1H/3H-imidazo[4,5-b]pyridine compounds as PAF antagonists” (G. D. Searle & Co., priority 1992, dated 1994).
